Key:
Test in all cases: Test D postemergence controlled growth environment test, plant response rating 0-100
Type in all cases: in vivo
[1] = tested on: winter barley (Hordeum vulgare)
Procedure, shortened: (§1)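 Each species is treated postemergence at the 1- to 4-leaf stage, with compound carried in a non-phytotoxic solvent and surfactant. Plants stay 14 days in a controlled growth environment before visual assessment against controls, rated 0 (no effect) through 100 (complete control).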

[2] = tested on: wild mustard (Sinapis arvensis)
Procedure, shortened: as §1

[3] = tested on: green foxtail (Setaria viridis)
Procedure, shortened: as §1

[4] = tested on: windgrass (Apera spica-venti)
Procedure, shortened: as §1

[5] = tested on: Russian thistle (Salsola kali)
Procedure, shortened: as §1

[6] = tested on: Italian ryegrass (Lolium multiflorum)
Procedure, shortened: as §1

wild oat (Avena fatua) = tested on: wild oat (Avena fatua)
Procedure, shortened: as §1

[7] = tested on: deadnettle (henbit deadnettle, Lamium amplexicaule)
Procedure, shortened: as §1

[8] = tested on: winter wheat (Triticum aestivum)
Procedure, shortened: as §1

[9] = tested on: spring barley (Hordeum vulgare)
Procedure, shortened: as §1

[10] = tested on: chickweed (common chickweed, Stellaria media)
Procedure, shortened: as §1

[11] = tested on: spring wheat (Triticum aestivum)
Procedure, shortened: as §1

[12] = tested on: canarygrass (Phalaris minor)
Procedure, shortened: as §1

[13] = tested on: blackgrass (Alopecurus myosuroides)
Procedure, shortened: as §1

[14] = tested on: bluegrass (annual bluegrass, Poa annua)
Procedure, shortened: as §1

[15] = tested on: oilseed rape (Brassica napus)
Procedure, shortened: as §1

[16] = tested on: galium (catchweed bedstraw, Galium aparine)
Procedure, shortened: as §1

kochia (Kochia scoparia) = tested on: kochia (Kochia scoparia)
Procedure, shortened: as §1

[17] = tested on: lambsquarters (Chenopodium album)
Procedure, shortened: as §1

[18] = tested on: downy bromegrass (Bromus tectorum)
Procedure, shortened: as §1

## C#CCn1cc(C(=O)c2ccccc2)c(-c2cc(Cl)cc(Cl)c2)n1 [Compound 39, [3-(3,5-dichlorophenyl)-1-(2-propyn-1-yl)-1H-pyrazol-4-yl]phenylmethanone]
[1]; 16 g ai/ha
  Plant response rating, Barley, Winter: 0
[1]; 31 g ai/ha
  Plant response rating, Barley, Winter: 0
[1]; 62 g ai/ha
  Plant response rating, Barley, Winter: 0
[1]; 125 g ai/ha
  Plant response rating, Barley, Winter: 0
[1]; 250 g ai/ha
  Plant response rating, Barley, Winter: 0
[2]; 16 g ai/ha
  Plant response rating, Mustard, Wild: 20
[2]; 31 g ai/ha
  Plant response rating, Mustard, Wild: 20
[2]; 62 g ai/ha
  Plant response rating, Mustard, Wild: 70
[2]; 125 g ai/ha
  Plant response rating, Mustard, Wild: 70
[2]; 250 g ai/ha
  Plant response rating, Mustard, Wild: 80
[3]; 16 g ai/ha
  Plant response rating, Foxtail, Green: 0
[3]; 31 g ai/ha
  Plant response rating, Foxtail, Green: 0
[3]; 62 g ai/ha
  Plant response rating, Foxtail, Green: 0
[3]; 125 g ai/ha
  Plant response rating, Foxtail, Green: 0
[3]; 250 g ai/ha
  Plant response rating, Foxtail, Green: 10
[4]; 16 g ai/ha
  Plant response rating, Windgrass: 0
[4]; 31 g ai/ha
  Plant response rating, Windgrass: 0
[4]; 62 g ai/ha
  Plant response rating, Windgrass: 0
[4]; 125 g ai/ha
  Plant response rating, Windgrass: 0
[4]; 250 g ai/ha
  Plant response rating, Windgrass: 0
[5]; 16 g ai/ha
  Plant response rating, Russian Thistle: 0
[5]; 31 g ai/ha
  Plant response rating, Russian Thistle: 0
[5]; 62 g ai/ha
  Plant response rating, Russian Thistle: 10
[5]; 125 g ai/ha
  Plant response rating, Russian Thistle: 20
[5]; 250 g ai/ha
  Plant response rating, Russian Thistle: 25
[6]; 16 g ai/ha
  Plant response rating, Ryegrass, Italian: 0
[6]; 31 g ai/ha
  Plant response rating, Ryegrass, Italian: 0
[6]; 62 g ai/ha
  Plant response rating, Ryegrass, Italian: 0
[6]; 125 g ai/ha
  Plant response rating, Ryegrass, Italian: 0
[6]; 250 g ai/ha
  Plant response rating, Ryegrass, Italian: 10
Wild oat (Avena fatua); 16 g ai/ha
  Plant response rating, Oat, Wild: 0
Wild oat (Avena fatua); 31 g ai/ha
  Plant response rating, Oat, Wild: 0
Wild oat (Avena fatua); 62 g ai/ha
  Plant response rating, Oat, Wild: 0
Wild oat (Avena fatua); 125 g ai/ha
  Plant response rating, Oat, Wild: 0
Wild oat (Avena fatua); 250 g ai/ha
  Plant response rating, Oat, Wild: 0
[7]; 16 g ai/ha
  Plant response rating, Deadnettle: 0
[7]; 31 g ai/ha
  Plant response rating, Deadnettle: 0
[7]; 62 g ai/ha
  Plant response rating, Deadnettle: 0
[7]; 125 g ai/ha
  Plant response rating, Deadnettle: 0
[7]; 250 g ai/ha
  Plant response rating, Deadnettle: 0
[8]; 16 g ai/ha
  Plant response rating, Wheat, Winter: 0
[8]; 31 g ai/ha
  Plant response rating, Wheat, Winter: 0
[8]; 62 g ai/ha
  Plant response rating, Wheat, Winter: 0
[8]; 125 g ai/ha
  Plant response rating, Wheat, Winter: 0
[8]; 250 g ai/ha
  Plant response rating, Wheat, Winter: 0
[9]; 16 g ai/ha
  Plant response rating, Barley, Spring: 0
[9]; 31 g ai/ha
  Plant response rating, Barley, Spring: 0
[9]; 62 g ai/ha
  Plant response rating, Barley, Spring: 0
[9]; 125 g ai/ha
  Plant response rating, Barley, Spring: 0
[9]; 250 g ai/ha
  Plant response rating, Barley, Spring: 0
[10]; 16 g ai/ha
  Plant response rating, Chickweed: 0
[10]; 31 g ai/ha
  Plant response rating, Chickweed: 0
[10]; 62 g ai/ha
  Plant response rating, Chickweed: 10
[10]; 125 g ai/ha
  Plant response rating, Chickweed: 30
[10]; 250 g ai/ha
  Plant response rating, Chickweed: 50
[11]; 16 g ai/ha
  Plant response rating, Wheat, Spring: 0
[11]; 31 g ai/ha
  Plant response rating, Wheat, Spring: 0
[11]; 62 g ai/ha
  Plant response rating, Wheat, Spring: 0
[11]; 125 g ai/ha
  Plant response rating, Wheat, Spring: 0
[11]; 250 g ai/ha
  Plant response rating, Wheat, Spring: 0
[12]; 16 g ai/ha
  Plant response rating, Canarygrass: 0
[12]; 31 g ai/ha
  Plant response rating, Canarygrass: 0
[12]; 62 g ai/ha
  Plant response rating, Canarygrass: 0
[12]; 125 g ai/ha
  Plant response rating, Canarygrass: 0
[12]; 250 g ai/ha
  Plant response rating, Canarygrass: 0
[13]; 16 g ai/ha
  Plant response rating, Blackgrass: 0
[13]; 31 g ai/ha
  Plant response rating, Blackgrass: 0
[13]; 62 g ai/ha
  Plant response rating, Blackgrass: 0
[13]; 125 g ai/ha
  Plant response rating, Blackgrass: 0
[13]; 250 g ai/ha
  Plant response rating, Blackgrass: 20
[14]; 16 g ai/ha
  Plant response rating, Bluegrass: 0
[14]; 31 g ai/ha
  Plant response rating, Bluegrass: 0
[14]; 62 g ai/ha
  Plant response rating, Bluegrass: 0
[14]; 125 g ai/ha
  Plant response rating, Bluegrass: 0
[14]; 250 g ai/ha
  Plant response rating, Bluegrass: 0
[15]; 16 g ai/ha
  Plant response rating, Oilseed Rape: 0
[15]; 31 g ai/ha
  Plant response rating, Oilseed Rape: 0
[15]; 62 g ai/ha
  Plant response rating, Oilseed Rape: 10
[15]; 125 g ai/ha
  Plant response rating, Oilseed Rape: 20
[15]; 250 g ai/ha
  Plant response rating, Oilseed Rape: 60
[16]; 16 g ai/ha
  Plant response rating, Galium: 0
[16]; 31 g ai/ha
  Plant response rating, Galium: 0
[16]; 62 g ai/ha
  Plant response rating, Galium: 0
[16]; 125 g ai/ha
  Plant response rating, Galium: 0
[16]; 250 g ai/ha
  Plant response rating, Galium: 0
Kochia (Kochia scoparia); 16 g ai/ha
  Plant response rating, Kochia: 0
Kochia (Kochia scoparia); 31 g ai/ha
  Plant response rating, Kochia: 0
Kochia (Kochia scoparia); 62 g ai/ha
  Plant response rating, Kochia: 20
Kochia (Kochia scoparia); 125 g ai/ha
  Plant response rating, Kochia: 10
Kochia (Kochia scoparia); 250 g ai/ha
  Plant response rating, Kochia: 20
[17]; 16 g ai/ha
  Plant response rating, Lambsquarters: 0
[17]; 31 g ai/ha
  Plant response rating, Lambsquarters: 0
[17]; 62 g ai/ha
  Plant response rating, Lambsquarters: 10
[17]; 125 g ai/ha
  Plant response rating, Lambsquarters: 20
[17]; 250 g ai/ha
  Plant response rating, Lambsquarters: 25
[18]; 16 g ai/ha
  Plant response rating, Bromegrass, Downy: 0
[18]; 31 g ai/ha
  Plant response rating, Bromegrass, Downy: 0
[18]; 62 g ai/ha
  Plant response rating, Bromegrass, Downy: 0
[18]; 125 g ai/ha
  Plant response rating, Bromegrass, Downy: 0
[18]; 250 g ai/ha
  Plant response rating, Bromegrass, Downy: 0

From US10167262B2, “Herbicidal substituted 3-arylpyrazoles” (FMC CORPORATION, priority 2014, dated 2019)
